Results published in ChEMBL document CHEMBL5518223, “Structure-Guided Elaboration of a Fragment-Like Hit into an Orally Efficacious Leukotriene A4 Hydrolase Inhibitor” (J Med Chem, 2024).
≈ marks a conversion by molar mass, not a printed value.

Tests used:
[1] = molecular target: T1, Voltage-gated inwardly rectifying potassium channel KCNH2 (Homo sapiens, UniProt Q12809); test: Inhibition of hERG by microfluidic patch clamp assay; assay type: toxicity
[2] = molecular target: T1, Voltage-gated inwardly rectifying potassium channel KCNH2; test: Inhibition of hERG by manual patch clamp assay; assay type: toxicity
[3] = molecular target: T2, Leukotriene A-4 hydrolase (Homo sapiens, UniProt P09960); test: Inhibition of LTA4H (unknown origin) using Arg-AMC as substrate preincubated with compound for 15 mins followed by substrate addition and measured after every 10 mins for 30 mins by fluorescence based analysis
T2 sequence (P09960 whole entry): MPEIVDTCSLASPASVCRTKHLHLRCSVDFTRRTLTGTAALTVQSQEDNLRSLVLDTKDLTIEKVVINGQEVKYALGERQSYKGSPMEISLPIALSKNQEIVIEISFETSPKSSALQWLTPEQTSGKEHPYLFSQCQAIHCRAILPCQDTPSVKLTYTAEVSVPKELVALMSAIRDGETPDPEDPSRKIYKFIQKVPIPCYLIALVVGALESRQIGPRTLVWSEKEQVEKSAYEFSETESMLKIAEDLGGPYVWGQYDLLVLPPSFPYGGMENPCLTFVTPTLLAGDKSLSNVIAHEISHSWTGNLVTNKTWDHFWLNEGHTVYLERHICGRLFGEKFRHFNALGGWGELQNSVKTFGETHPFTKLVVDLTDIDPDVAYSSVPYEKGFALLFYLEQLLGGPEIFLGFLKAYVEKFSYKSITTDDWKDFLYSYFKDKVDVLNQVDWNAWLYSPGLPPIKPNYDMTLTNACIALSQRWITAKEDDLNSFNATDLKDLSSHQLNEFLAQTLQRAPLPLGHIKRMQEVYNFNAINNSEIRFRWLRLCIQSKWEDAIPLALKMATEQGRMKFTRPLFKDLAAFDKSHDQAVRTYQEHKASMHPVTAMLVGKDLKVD

[4] = in vivo; conditions: C57/BL6, mouse, blood, po, 10 mg/kg
Description: Drug concentration in C57/BL6 mouse blood at 10 mg/kg, po bid measured after 14 hrs

[5] = physchem; conditions: octanol/water, pH 7.4
[6] = in vitro; conditions: dog, MDCK
Description: Apparent permeability coefficient of the compound across apical to basolateral side in dog MDCKII-LE cells

[7] = physchem; conditions: buffer, pH 6.8
Description: Solubility of the compound at pH 6.8 using amorphous form of sample

[8] = organism: Mus musculus; test: animal or person; conditions: C57/BL6, po, 14 h, read-out: INH
Description: Inhibition of calcium ionophore A23187-stimulated LTB4 release in C57/BL6 mouse model at 10 mg/kg, po bid measured after 14 hrs

T1 sequence (Q12809 whole entry): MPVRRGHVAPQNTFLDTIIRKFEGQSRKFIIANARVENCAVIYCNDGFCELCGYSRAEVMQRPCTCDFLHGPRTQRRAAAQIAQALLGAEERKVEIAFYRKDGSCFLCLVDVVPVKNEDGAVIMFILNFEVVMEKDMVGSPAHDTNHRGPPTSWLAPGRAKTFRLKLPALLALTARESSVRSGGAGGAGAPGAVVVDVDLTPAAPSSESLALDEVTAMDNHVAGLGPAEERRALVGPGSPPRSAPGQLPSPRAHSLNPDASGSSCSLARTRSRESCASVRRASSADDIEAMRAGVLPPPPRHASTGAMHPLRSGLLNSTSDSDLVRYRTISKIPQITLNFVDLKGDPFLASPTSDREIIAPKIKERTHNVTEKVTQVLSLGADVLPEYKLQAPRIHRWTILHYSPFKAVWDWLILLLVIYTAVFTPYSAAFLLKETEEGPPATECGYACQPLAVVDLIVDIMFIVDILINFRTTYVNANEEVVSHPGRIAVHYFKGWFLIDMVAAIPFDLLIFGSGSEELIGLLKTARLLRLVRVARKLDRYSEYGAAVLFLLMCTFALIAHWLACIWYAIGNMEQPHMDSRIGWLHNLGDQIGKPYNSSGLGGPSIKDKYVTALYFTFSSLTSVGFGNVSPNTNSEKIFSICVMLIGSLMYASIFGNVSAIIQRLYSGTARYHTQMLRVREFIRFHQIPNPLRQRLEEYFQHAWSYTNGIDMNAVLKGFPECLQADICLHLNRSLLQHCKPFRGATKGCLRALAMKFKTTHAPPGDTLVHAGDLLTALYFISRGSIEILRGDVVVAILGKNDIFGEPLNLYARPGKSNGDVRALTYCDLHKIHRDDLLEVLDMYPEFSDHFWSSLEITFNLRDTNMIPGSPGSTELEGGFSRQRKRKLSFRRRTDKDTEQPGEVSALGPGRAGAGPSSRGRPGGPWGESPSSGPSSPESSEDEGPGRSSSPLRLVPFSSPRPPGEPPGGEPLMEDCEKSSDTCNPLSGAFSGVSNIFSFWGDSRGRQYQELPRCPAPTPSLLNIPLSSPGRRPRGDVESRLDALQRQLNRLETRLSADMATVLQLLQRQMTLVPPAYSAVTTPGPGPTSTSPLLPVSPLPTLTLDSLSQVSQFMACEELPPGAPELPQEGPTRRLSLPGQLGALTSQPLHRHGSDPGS

concentration at 14 h [4] [nM] | SMILES | IC50 [1] [µM] | IC50 [2] [µM] | further results
 | c1cc(-c2ccc(Oc3ccc(CN4CCCCC4)nc3)nc2)[nH]n1 | > 30 | 27 | 
218 | c1ccc(Oc2ccc(-c3c[nH]cn3)cc2)cc1 |  |  | IC50 [3]: 0.088 µM; logD [5]: 3.7; Papp A→B [6]: 56 ×10⁻⁶ cm/s; solubility [7]: 121 µM (≈ 28.6 µg/mL); inhibition in vivo at 10 mg/kg [8]: 93%
 | CN(C)Cc1ccc(Oc2ccc(-c3ccn[nH]3)cn2)cn1 | > 30 |  | 
 | c1cc(-c2ccc(Oc3ccc(CN4CCCC4)nc3)nc2)[nH]n1 | > 30 | 19 | 
184 | N[C@@H](CC(=O)O)Cn1nnc(-c2ccc(Oc3ncc(Cl)cc3F)cc2)n1 |  |  | 
